ChEMBL document CHEMBL3632483, “Synthesis and pharmacological evaluation of piperidine (piperazine)-substituted benzoxazole derivatives as multi-target antipsychotics” (Bioorg Med Chem Lett, 2015)
Calls of active or inactive are those of the source. The rule behind the calls is not given here.

Experiments:
[1] = biological target: T1, Adrenergic receptor alpha-1 (Rattus norvegicus, UniProt P15823+P23944+P43140); assay: Displacement of [3H]prazosin from adrenergic alpha1 receptor in rat cerebral cortex homogenates after 60 mins by liquid scintillation counting; format: tissue-based
T1 sequence (P15823 whole entry): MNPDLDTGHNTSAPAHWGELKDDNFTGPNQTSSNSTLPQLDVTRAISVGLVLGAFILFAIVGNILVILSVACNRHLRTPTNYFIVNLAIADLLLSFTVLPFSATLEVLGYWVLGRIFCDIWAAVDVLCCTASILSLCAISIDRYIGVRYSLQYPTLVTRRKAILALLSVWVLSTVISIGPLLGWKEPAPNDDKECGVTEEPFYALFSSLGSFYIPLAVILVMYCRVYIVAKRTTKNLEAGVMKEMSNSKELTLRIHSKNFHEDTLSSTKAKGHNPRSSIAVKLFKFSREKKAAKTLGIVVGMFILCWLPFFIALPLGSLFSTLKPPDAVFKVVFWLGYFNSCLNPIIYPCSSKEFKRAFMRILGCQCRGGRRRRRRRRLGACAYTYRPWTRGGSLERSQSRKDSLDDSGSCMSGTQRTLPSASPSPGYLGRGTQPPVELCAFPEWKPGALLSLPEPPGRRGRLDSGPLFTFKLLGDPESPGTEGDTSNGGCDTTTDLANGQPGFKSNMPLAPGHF
T1 sequence (P23944 whole entry): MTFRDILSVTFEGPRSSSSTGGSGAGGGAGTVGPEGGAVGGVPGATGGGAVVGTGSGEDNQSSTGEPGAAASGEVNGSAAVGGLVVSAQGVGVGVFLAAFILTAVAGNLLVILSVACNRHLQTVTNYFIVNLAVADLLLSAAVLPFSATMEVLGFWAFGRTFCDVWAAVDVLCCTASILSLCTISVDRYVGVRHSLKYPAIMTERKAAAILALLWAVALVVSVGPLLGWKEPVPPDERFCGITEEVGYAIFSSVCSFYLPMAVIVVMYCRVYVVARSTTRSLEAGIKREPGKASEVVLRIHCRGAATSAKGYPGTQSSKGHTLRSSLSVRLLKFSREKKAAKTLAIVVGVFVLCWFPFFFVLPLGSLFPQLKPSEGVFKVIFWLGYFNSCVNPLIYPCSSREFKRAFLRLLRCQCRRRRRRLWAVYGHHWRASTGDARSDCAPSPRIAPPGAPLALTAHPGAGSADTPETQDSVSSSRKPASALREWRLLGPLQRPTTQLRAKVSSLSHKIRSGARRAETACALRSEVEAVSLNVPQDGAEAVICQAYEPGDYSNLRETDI
T1 sequence (P43140 whole entry): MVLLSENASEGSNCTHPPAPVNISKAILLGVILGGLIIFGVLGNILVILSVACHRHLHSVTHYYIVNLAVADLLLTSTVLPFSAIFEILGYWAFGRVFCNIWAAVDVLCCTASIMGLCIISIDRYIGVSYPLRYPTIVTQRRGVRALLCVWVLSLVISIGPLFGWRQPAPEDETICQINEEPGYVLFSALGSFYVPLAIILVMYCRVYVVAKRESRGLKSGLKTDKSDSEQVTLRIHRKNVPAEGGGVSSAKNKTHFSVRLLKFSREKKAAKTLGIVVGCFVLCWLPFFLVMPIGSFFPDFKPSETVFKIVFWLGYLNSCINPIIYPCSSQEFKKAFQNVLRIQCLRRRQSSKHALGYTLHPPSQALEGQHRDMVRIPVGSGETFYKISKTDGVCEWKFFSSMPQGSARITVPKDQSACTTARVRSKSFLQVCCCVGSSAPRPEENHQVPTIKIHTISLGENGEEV

Mus musculus [2] = assay: Antipsychotic activity in Chinese Kun Ming mouse assessed as inhibition of apomorphine-induced climbing behaviour at 1 mg/kg, po administered 30 mins before apomorphine challenge measured up to 30 mins; format: functional, organism-based
Mus musculus [3] = assay: Antipsychotic activity in Chinese Kun Ming mouse assessed as inhibition of apomorphine-induced reaching behaviour at 1 mg/kg, po administered 30 mins before apomorphine challenge measured up to 30 mins; format: functional, organism-based
Mus musculus [4] = assay: Neurotoxicity in Chinese Kun Ming mouse assessed as locomotor activity by measuring total distance traveled at 1 mg/kg, po administered 1 hr before test measured for 10 mins (reference value: 13263.8 +/- 8034.2 millimeter); format: toxicity, organism-based; conditions: in vivo
Histamine H1 receptor = Histamine H1 receptor (Cavia porcellus, UniProt P31389); assay: Displacement of [3H]mepyramine from histamine H1 receptor in guinea pig cerebellum homogenates after 60 mins by liquid scintillation counting
Mus musculus [5] = assay: Neurotoxicity in Chinese Kun Ming mouse assessed as locomotor activity by measuring total distance traveled at 3 mg/kg, po administered 1 hr before test measured for 10 mins (reference value: 13263.8 +/- 8034.2 millimeter); format: toxicity, organism-based; conditions: in vivo
Mus musculus [6] = assay: Neurotoxicity in Chinese Kun Ming mouse assessed as locomotor activity by measuring total distance traveled at 10 mg/kg, po administered 1 hr before test measured for 10 mins (reference value: 13263.8 +/- 8034.2 millimeter); format: toxicity, organism-based; conditions: in vivo
Mus musculus [7] = assay: Antipsychotic activity in po dosed Chinese Kun Ming mouse assessed as inhibition of DOI-induced head twitch administered 60 mins before DOI challenge measured up to 15 mins; format: functional
Mus musculus [8] = assay: Toxicity in po dosed Chinese Kun Ming mouse assessed as induction of catalepsy by measuring immobility score of 30 seconds administered 30 mins before first assessment; format: organism-based; conditions: in vivo, 0.5 h
Mus musculus [9] = assay: Antipsychotic activity in po dosed Chinese Kun Ming mouse assessed as inhibition of apomorphine-induced climbing administered 30 mins before apomorphine challenge measured up to 30 mins; format: functional

Sequence of Histamine H1 receptor (P31389 whole entry): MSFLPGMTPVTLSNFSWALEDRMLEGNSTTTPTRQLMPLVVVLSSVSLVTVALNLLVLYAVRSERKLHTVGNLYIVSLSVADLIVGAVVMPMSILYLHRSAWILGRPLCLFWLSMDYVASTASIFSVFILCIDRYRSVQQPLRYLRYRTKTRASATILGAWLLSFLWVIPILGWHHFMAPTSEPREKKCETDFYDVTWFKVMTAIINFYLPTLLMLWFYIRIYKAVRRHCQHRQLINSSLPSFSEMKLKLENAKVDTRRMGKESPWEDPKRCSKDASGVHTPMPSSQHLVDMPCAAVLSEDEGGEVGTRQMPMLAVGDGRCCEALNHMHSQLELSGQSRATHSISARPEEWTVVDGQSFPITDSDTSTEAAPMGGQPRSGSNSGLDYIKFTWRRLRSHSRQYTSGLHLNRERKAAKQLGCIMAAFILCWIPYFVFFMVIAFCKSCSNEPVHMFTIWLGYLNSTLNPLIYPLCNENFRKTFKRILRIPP

Structure (SMILES) | Ki [1] | inhibition (Mus musculus [2]) | inhibition (Mus musculus [3]) | Activity (Mus musculus [4]) | Ki (Histamine H1 receptor) | Activity (Mus musculus [5]) | Activity (Mus musculus [6]) | ED50 (Mus musculus [7]) | inhibition (Mus musculus [7]) | ED50 (Mus musculus [8]) | ED50 (Mus musculus [9])
Fc1ccc2c(C3CCN(CCCOc4ccc(-c5nc6ccccc6o5)cc4)CC3)noc2c1 | 0.095 µM | – | – | – | – | – | – | – | – | – | –
Fc1ccc2c(C3CCN(CCCOc4ccc(Cc5nc6ccccc6o5)cc4)CC3)noc2c1 | 3.276 µM | Active | Active | 13046.7 mm | 3.15 µM | 10447.5 mm | 9492.4 mm | 0.71 mg/kg | Dose-dependent effect | 70.5 mg/kg | 0.86 mg/kg
